The record followed here is ChEMBL document CHEMBL4602723, “Stalobacin: Discovery of Novel Lipopeptide Antibiotics with Potent Antibacterial Activity against Multidrug-Resistant Bacteria” (J Med Chem, 2020).

≈ marks a conversion by molar mass, not a printed value. Calls of active or inactive are those of the source. The rule behind the calls is not given here. Some results are limits rather than exact numbers.

Experiment [1] concerns Staphylococcus aureus. As to the kind of experiment: Antibacterial activity against Staphylococcus aureus SMITH assessed as inhibition of bacterial growth incubated for 20 hrs by microdilution broth method. Type of experiment: functional.
The test system of experiment [2] is Streptococcus pneumoniae. As to the kind of experiment: Antibacterial activity against Streptococcus pneumoniae SR11031 (PRSP) assessed as inhibition of bacterial growth incubated for 20 hrs by microdilution broth method. Type of experiment: functional. Particulars: SR11031, 20 h.
Experiment [3] relates to Enterococcus faecium. As to the kind of experiment: Antibacterial activity against Enterococcus faecium SR16972 assessed as inhibition of bacterial growth incubated for 20 hrs by microdilution broth method. Type of experiment: functional. Particulars: SR16972, 20 h.
The subject of experiment [4] is Staphylococcus aureus. The experiment can be described thus: Antibacterial activity against Vancomycin-resistant Staphylococcus aureus HIP11983 assessed as inhibition of bacterial growth incubated for 20 hrs by microdilution broth method. Type of experiment: functional. Particulars: HIP11983, 20 h.
For experiment [5], the system named is Staphylococcus aureus. As to the kind of experiment: Potency index, ratio of MIC for linezolid to MIC for test compound for antibacterial activity against methicillin-resistant Staphylococcus aureus SR3637. Type of experiment: functional.
In experiment [6] the test system is Staphylococcus aureus. As to the kind of experiment: Potency index, ratio of MIC for telavancin to MIC for test compound for antibacterial activity against methicillin-resistant Staphylococcus aureus SR3637. The class given is functional.
The test system of experiment [7] is Staphylococcus aureus. As to the kind of experiment: Induction of morphological changes in Staphylococcus aureus RN4220 assessed as inflation of bacterial cell body. The class given is functional, organism-based.
Experiment [8] relates to Enterococcus faecium. The experiment can be described thus: Antibacterial activity against Vancomycin-resistant Enterococcus faecium SRM1101 (c_VanB) assessed as inhibition of bacterial growth incubated for 20 hrs by microdilution broth method. The class given is functional. To be noted: SRM1101, 20 h.
Experiment [9] deals with Staphylococcus aureus. The experiment can be described thus: Antibacterial activity against Vancomycin-resistant Staphylococcus aureus HIP11714 assessed as inhibition of bacterial growth incubated for 20 hrs by microdilution broth method. Particulars: HIP11714, 20 h. Type of experiment: functional.
The subject of experiment [10] is Escherichia coli. As to the kind of experiment: Induction of morphological changes in Escherichia coli JC2 assessed as inflation of bacterial cell body. Type of experiment: functional, organism-based.
The test system of another experiment is L1210. The experiment can be described thus: Cytotoxicity in mouse L1210 cells assessed as reduction in cell viability. The class given is cell-based.
For another experiment, the system named is Klebsiella pneumoniae. As to the kind of experiment: Antibacterial activity against Klebsiella pneumoniae SR1 assessed as inhibition of bacterial growth incubated for 20 hrs by microdilution broth method. The class given is functional. Particulars: SR1, 20 h.
The test system of experiment [11] is Enterococcus faecium. As to the kind of experiment: Antibacterial activity against Vancomycin-resistant Enterococcus faecium SR7940 (VanA) assessed as inhibition of bacterial growth incubated for 20 hrs by microdilution broth method. Type of experiment: functional. To be noted: SR7940, 20 h.
The test system of experiment [12] is Enterococcus faecalis. As to the kind of experiment: Antibacterial activity against Vancomycin-resistant Enterococcus faecalis SR23630 (VanB) assessed as inhibition of bacterial growth incubated for 20 hrs by microdilution broth method. The class given is functional. Particulars: SR23630, 20 h.
Experiment [13] deals with Staphylococcus aureus. As to the kind of experiment: Antibacterial activity against Staphylococcus aureus RN4220 assessed as inhibition of bacterial growth incubated for 20 hrs by microdilution broth method. The class given is functional. Particulars: RN4220, 20 h.
Another experiment has as its system P388. The experiment can be described thus: Cytotoxicity in mouse P388 cells assessed as reduction in cell viability. The class given is cell-based.
For experiment [14], the system named is Enterococcus faecalis. The experiment can be described thus: Antibacterial activity against Vancomycin-resistant Enterococcus faecalis SR7914 (VanA) assessed as inhibition of bacterial growth incubated for 20 hrs by microdilution broth method. The class given is functional. Particulars: SR7914, 20 h.
Experiment [15] deals with Enterococcus faecalis. The experiment can be described thus: Antibacterial activity against Enterococcus faecalis SR1004 assessed as inhibition of bacterial growth incubated for 20 hrs by microdilution broth method. Type of experiment: functional. To be noted: SR1004, 20 h.
In experiment [16] the test system is Escherichia coli. As to the kind of experiment: Antibacterial activity against Escherichia coli JC2 assessed as inhibition of bacterial growth incubated for 20 hrs by microdilution broth method. Type of experiment: functional. Particulars: JC2, 20 h.
In experiment [17] the test system is Streptococcus pneumoniae. As to the kind of experiment: Antibacterial activity against Streptococcus pneumoniae tupelo (VTSP) assessed as inhibition of bacterial growth incubated for 20 hrs by microdilution broth method. Type of experiment: functional.
Experiment [18] relates to Staphylococcus aureus. The experiment can be described thus: Antibacterial activity against methicillin-resistant Staphylococcus aureus SR3637 assessed as inhibition of bacterial growth incubated for 20 hrs by microdilution broth method. To be noted: SR3637, 20 h. The class given is functional.
Experiment [19] has as its system Enterococcus faecium. As to the kind of experiment: Antibacterial activity against Vancomycin-resistant Enterococcus faecium SR23598 (VanB) assessed as inhibition of bacterial growth incubated for 20 hrs by microdilution broth method. To be noted: SR23598, 20 h. The class given is functional.
Experiment [20] has as its system Streptococcus pneumoniae. The experiment can be described thus: Antibacterial activity against Streptococcus pneumoniae type 1 assessed as inhibition of bacterial growth incubated for 20 hrs by microdilution broth method. The class given is functional. Particulars: type 1, 20 h.
For experiment [21], the system named is Staphylococcus aureus. The experiment can be described thus: Potency index, ratio of MIC for vancomycin to MIC for test compound for antibacterial activity against methicillin-resistant Staphylococcus aureus SR3637. The class given is functional.

As to `CCCCCC/C=C\CCCCC[C@@H]1C[C@H]1/C=C/C(O)C(=O)N[C@H](C(=O)N(C)[C@@H](CC(=O)O)C(=O)N(COC(C)(CC)C(NC(=O)C(NC(=O)[C@@H](N)CC(=O)O)C(O)C(O)CNC(=N)N)C(=O)NCC(=O)N[C@@H](CO)C(=O)O)[C@@]12C[C@@H]1CN(C(=N)N)C2=O)[C@H](O)C(=O)O` (stereo partly drawn), the minimal inhibitory concentration (MIC) with Staphylococcus aureus [1] was 0.004 µg/mL (≈ 0.00302 µM); in the experiment with Streptococcus pneumoniae [2], at most 0.004 µg/mL; in the experiment with Enterococcus faecium [3], 0.004 µg/mL (≈ 0.00302 µM); in the experiment on Staphylococcus aureus [4], 0.004 µg/mL (≈ 0.00302 µM); in the experiment on Enterococcus faecium [8] it was 0.004 µg/mL (≈ 0.00302 µM); with Staphylococcus aureus [9] it was 0.004 µg/mL (≈ 0.00302 µM). The MIC amounted to 1 µg/mL (≈ 0.754 µM) in the experiment on Klebsiella pneumoniae; 0.004 µg/mL (≈ 0.00302 µM) in the experiment on Enterococcus faecium [11]; 0.004 µg/mL (≈ 0.00302 µM) in the experiment on Enterococcus faecalis [12]; 0.004 µg/mL (≈ 0.00302 µM) in the experiment on Staphylococcus aureus [13]; 0.016 µg/mL (≈ 0.0121 µM) with Enterococcus faecalis [14]; 0.008 µg/mL (≈ 0.00604 µM) with Enterococcus faecalis [15]. The MIC in the experiment on Escherichia coli [16] was 4 µg/mL (≈ 3.02 µM); with Streptococcus pneumoniae [17], at most 0.004 µg/mL; in the experiment with Staphylococcus aureus [18] it was 0.008 µg/mL (≈ 0.00604 µM); in the experiment with Enterococcus faecium [19], 0.004 µg/mL (≈ 0.00302 µM); with Streptococcus pneumoniae [20], at most 0.004 µg/mL. Further, the Ratio in the experiment with Staphylococcus aureus [5], in the experiment with Staphylococcus aureus [6] and in the experiment with Staphylococcus aureus [21] was 125 - 250 each time. The outcome with Staphylococcus aureus [7] and with Escherichia coli [10] was Active. Moreover, the IC50 in the experiment with L1210 and with P388 was over 12.5 µg/mL in each case.
Turning to `CN[C@H](CC(C)C)C(=O)N[C@H]1C(=O)N[C@@H](CC(N)=O)C(=O)N[C@H]2C(=O)N[C@H]3C(=O)N[C@H](C(=O)N[C@H](C(=O)O)c4cc(O)cc(O)c4-c4cc3ccc4O)[C@H](O)c3ccc(c(Cl)c3)Oc3cc2cc(c3O[C@@H]2O[C@H](CO)[C@@H](O)[C@H](O)[C@H]2O[C@H]2C[C@](C)(N)[C@H](O)[C@H](C)O2)Oc2ccc(cc2Cl)[C@H]1O` [VANCOMYCIN], the MIC is 0.25 µg/mL (≈ 0.173 µM) in the experiment with Streptococcus pneumoniae [2]; over 64 µg/mL in the experiment on Staphylococcus aureus [4]; over 64 µg/mL in the experiment on Enterococcus faecium [8]; over 64 µg/mL with Staphylococcus aureus [9]; over 64 µg/mL in the experiment on Klebsiella pneumoniae; over 64 µg/mL with Enterococcus faecium [11]. Besides, the MIC in the experiment on Enterococcus faecalis [12] is 32 µg/mL (≈ 22.1 µM); with Enterococcus faecalis [14], over 64 µg/mL; in the experiment on Enterococcus faecalis [15], 1 µg/mL (≈ 0.69 µM); with Escherichia coli [16], over 64 µg/mL; in the experiment with Streptococcus pneumoniae [17], 0.25 µg/mL (≈ 0.173 µM); in the experiment with Enterococcus faecium [19], over 64 µg/mL. In addition, the MIC in the experiment on Streptococcus pneumoniae [20] stood at 0.5 µg/mL (≈ 0.345 µM).
Take `CCCCCCCCCCNCCN[C@@]1(C)C[C@H](O[C@H]2[C@H](Oc3c4cc5cc3Oc3ccc(cc3Cl)[C@@H](O)[C@@H](NC(=O)[C@@H](CC(C)C)NC)C(=O)N[C@@H](CC(N)=O)C(=O)N[C@H]5C(=O)N[C@H]3C(=O)N[C@H](C(=O)N[C@H](C(=O)O)c5cc(O)c(CNCP(=O)(O)O)c(O)c5-c5cc3ccc5O)[C@H](O)c3ccc(c(Cl)c3)O4)O[C@H](CO)[C@@H](O)[C@@H]2O)O[C@@H](C)[C@H]1O` [TELAVANCIN]: the MIC was 0.5 µg/mL (≈ 0.285 µM) in the experiment with Staphylococcus aureus [1]; at most 0.063 µg/mL in the experiment with Streptococcus pneumoniae [2]; 0.5 µg/mL (≈ 0.285 µM) in the experiment on Enterococcus faecium [3]; 4 µg/mL (≈ 2.28 µM) in the experiment with Staphylococcus aureus [4]; 8 µg/mL (≈ 4.56 µM) in the experiment with Enterococcus faecium [8]; 4 µg/mL (≈ 2.28 µM) in the experiment with Staphylococcus aureus [9]. Further, the MIC in the experiment on Enterococcus faecium [11] was 8 µg/mL (≈ 4.56 µM); in the experiment with Enterococcus faecalis [12], 1 µg/mL (≈ 0.57 µM); in the experiment on Staphylococcus aureus [13] it was 0.5 µg/mL (≈ 0.285 µM); in the experiment on Enterococcus faecalis [14] it was 4 µg/mL (≈ 2.28 µM); in the experiment with Enterococcus faecalis [15], 1 µg/mL (≈ 0.57 µM); with Streptococcus pneumoniae [17], at most 0.063 µg/mL. Moreover, the MIC was 1 µg/mL (≈ 0.57 µM) in the experiment with Staphylococcus aureus [18], 0.5 µg/mL (≈ 0.285 µM) in the experiment with Enterococcus faecium [19] and at most 0.063 µg/mL in the experiment on Streptococcus pneumoniae [20].
As to `CCCCCC/C=C\CCCCC[C@@H]1C[C@H]1/C=C/C(O)C(=O)N[C@H](C(=O)N(C)[C@@H](CC(=O)O)C(=O)N(COC(C)(CC)C(NC(=O)C(NC(=O)[C@@H](N)CC(=O)O)C(O)C(O)CNC(=N)N)C(=O)NCC(=O)N[C@@H](CO)C(=O)O)[C@@]12C[C@@H]1CNC2=O)[C@H](O)C(=O)O` (stereo partly drawn), the MIC stood at 0.5 µg/mL (≈ 0.39 µM) in the experiment on Staphylococcus aureus [1]; 0.25 µg/mL (≈ 0.195 µM) in the experiment with Streptococcus pneumoniae [2]; 4 µg/mL (≈ 3.12 µM) in the experiment with Enterococcus faecium [3]; 1 µg/mL (≈ 0.779 µM) with Staphylococcus aureus [4]; 1 µg/mL (≈ 0.779 µM) with Enterococcus faecium [8]; 0.5 µg/mL (≈ 0.39 µM) in the experiment with Staphylococcus aureus [9]. Besides, the MIC was 2 µg/mL (≈ 1.56 µM) in the experiment on Klebsiella pneumoniae; 2 µg/mL (≈ 1.56 µM) in the experiment with Enterococcus faecium [11]; over 64 µg/mL in the experiment on Enterococcus faecalis [12]; 0.5 µg/mL (≈ 0.39 µM) with Staphylococcus aureus [13]; over 64 µg/mL with Enterococcus faecalis [14]; over 64 µg/mL with Enterococcus faecalis [15]. The minimum inhibitory concentration (MIC) was 4 µg/mL (≈ 3.12 µM) in the experiment on Escherichia coli [16]; at most 0.004 µg/mL in the experiment on Streptococcus pneumoniae [17]; 1 µg/mL (≈ 0.779 µM) with Staphylococcus aureus [18]; 1 µg/mL (≈ 0.779 µM) in the experiment with Enterococcus faecium [19]; 0.25 µg/mL (≈ 0.195 µM) with Streptococcus pneumoniae [20].
On to `CC(=O)NC[C@H]1CN(c2ccc(N3CCOCC3)c(F)c2)C(=O)O1` [LINEZOLID], for which the MIC in the experiment with Enterococcus faecium [3], in the experiment with Enterococcus faecium [8], in the experiment on Enterococcus faecium [11] and in the experiment on Enterococcus faecium [19] was 2 µg/mL (≈ 5.93 µM) throughout.
